Measured values published in patent US6448247B1, “Method for treating an inflammatory disease” (Sankyo Company, Limited, priority 1995, dated 2002).
Like-named read-outs stand apart in the source and are kept apart here.

How the values were obtained:
NK1 receptors = target: T1, NK1 receptors (Cavia porcellus, UniProt P30547); assay: NK1 Receptor Binding Test; set-up: species or system guinea pig
T1 construct: A crude membrane fraction was prepared from the lung of male Hartley guinea pigs; from tissue; host or cells: guinea pig lung (crude membrane fraction)
Procedure: (a) Preparation of Crude Lung Membrane Fraction
A crude membrane fraction was prepared from the lung of male Hartley guinea pigs. The guinea pigs were bled from the cava abdominalis under chloroform anaesthesia and the pulmonary airway tissue was extracted immediately.
The extracted lung was perfused with a buffer (1) (50 mM Tris-HCl, pH 7.4), thinly cut in the buffer, and then homogenised in a buffer (2) [buffer (1) containing 120 mM sodium chloride and 5 mM potassium chloride] using a Polytron homogenizer. The tissue mass was removed from the homogenate by filtration with a nylon mesh (50 μm) and the supernatant was centrifuged (30,000×g, 30 minutes, 4° C.). The resultant pellet was resuspended in an ice-cooled buffer (3) [buffer (1) containing 10 mM EDTA and 300 mM potassium chloride], allowed to stand at 4° C. for 60 minutes and then washed centrifugally twice (30,000×g, 15 minutes, 4° C.).
(§1) The crude membrane fraction was preserved at −80° C. before use.
(§2) (b) Receptor Binding Test
(§3) To a mixed solution (250 μl) of the test drug and [^3H]-substance P (final concentration: 1 nM) (50 mM Tris-HCl, pH 7.4; 6 mM manganese chloride, 800 μg/ml BSA, 8 μg/ml chymostatin, 8 μg/ml leupeptin, 80 μg/ml bacitracin, 20 μg/ml phosphoramidon) was added a crude lung membrane fraction solution (250 μl), followed by incubation at room temperature for 30 minutes.
At the end of this time, a lung membrane ingredient was recovered on a GF/B glass fiber filter (manufactured by Whatman Co.) using an automatic filtering device (manufactured by Brandel Co.).
The glass filter was used after being pre-treated with a 0.1% polyethyleneimine solution for about 4 hours so as to inhibit non-specific binding as little as possible. The membrane ingredient-recovered filter was transferred to a mini-plastic vial containing a pico flow (4 ml) and the radioactivity was measured using a liquid scintillation counter (LSC3000, manufactured by Beckman Co.).

NK2 receptors = target: T2, NK2 receptors (Cavia porcellus, UniProt Q64077); assay: NK2 Receptor Binding Test; set-up: species or system guinea pig
T2 construct: A crude membrane fraction was prepared from the ileum of male Hartley guinea pigs; from tissue; host or cells: guinea pig ileum (crude membrane fraction)
T2 sequence (Q64077 1-402): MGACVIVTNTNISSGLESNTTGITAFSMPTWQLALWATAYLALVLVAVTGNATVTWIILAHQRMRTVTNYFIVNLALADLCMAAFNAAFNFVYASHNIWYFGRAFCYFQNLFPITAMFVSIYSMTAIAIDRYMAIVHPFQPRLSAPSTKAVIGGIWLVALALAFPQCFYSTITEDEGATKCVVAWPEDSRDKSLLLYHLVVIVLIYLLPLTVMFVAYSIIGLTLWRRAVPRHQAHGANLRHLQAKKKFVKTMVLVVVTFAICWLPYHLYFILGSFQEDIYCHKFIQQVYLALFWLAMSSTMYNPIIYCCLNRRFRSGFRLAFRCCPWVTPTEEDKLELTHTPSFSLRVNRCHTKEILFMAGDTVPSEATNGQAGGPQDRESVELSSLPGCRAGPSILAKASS
Procedure: (a) Preparation of Crude Ileum Membrane Fraction
A crude membrane fraction was prepared from the ileum of male Hartley guinea pigs. The guinea pigs were bled from the cava abdominalis under chloroform anaesthesia and the ileum was extracted immediately.
After the contents, secreta and epithelium of the lumen had been scraped off using a glass slide, the extracted ileum was thinly cut in a buffer (1) (50 mM Tris-HCl, pH 7.4) and then homogenised in a buffer (2) [buffer (1) containing 120 mM sodium chloride and 5 mM potassium chloride] using a Polytron homogenizer.
The tissue mass was removed from the homogenate by filtration with a nylon mesh (50 μm) and the supernatant was centrifuged (30,000×g, 30 minutes, 4° C.). The resultant pellet was resuspended in an ice-cooled buffer (3) [buffer (1) containing 10 mM EDTA and 30 mM potassium chloride], allowed to stand at 4° C. for 60 minutes and then washed centrifugally twice (30,000×g, 15 minutes, 4° C.).
as §1, §2
as §3, with “and [^3H]-SR-48968 (manufactured by Amasham Co., final” for “and [^3H]-substance P (final”, “7.4; 4.6” for “7.4; 6”, “[…]” for “20 μg/ml”, “crude ileum” for “crude lung”
At the end of this time, a membrane ingredient was recovered on a GF/B glass fiber filter (manufactured by Whatman Co.) using an automatic filtering device (manufactured by Brandel Co.). The glass filter was used after pre-treatment with a 0.1% polyethyleneimine solution for about 4 hours so as to inhibit non-specific binding as little as possible.
The membrane ingredient-recovered filter was transferred to a mini-plastic vial containing a pico flow (4 ml) and the radioactivity was measured using a liquid scintillation counter (LSC3000, manufactured by Beckman Co.).

[1] = test system: increased vascular permeability induced by substance P (SP), an NK1 receptor agonist; assay: Inhibitory Effect on SP-Induced Increased Vascular Permeability; assay type: in vivo, guinea pig; details: i.v., male Hartley guinea pigs, pigment (Evans blue) leakage into primary bronchus 15 min after SP i.v.
Procedure: The inhibitory effect on increased vascular permeability induced by substance P (SP), an NK1 receptor agonist, was assessed based on the amount of pigment leakage as an index using guinea pigs (body weight: approx. 400 g, male Hartley guinea pigs). Immediately after administering pigment (Evans blue: 20 mg/kg, i.v.) and the test drug in that order into the femoral vein of the guinea pigs under pentobarbital anaesthesia (25 mg/kg, i.p.), increased vascular permeability was induced by administration of SP ([…], i.v.). Fifteen minutes later, the guinea pigs were sacrificed by chloroform anaesthesia and the amount of pigment that leaked into the primary bronchus was measured according to the method of Harada (J. Pharm. Pharmacol., 23, 218, 1971). Inhibitory effect was determined based on the amount of pigment leakage found in guinea pigs not treated with the test drug, and expressed as the percent of inhibition (%) and the dose level that caused inhibition of 50% (ID50).

[2] = test system: bronchoconstriction induced with [Nle^10]-NKA[4-10], an NK2 receptor agonist; assay: Inhibitory Effect on NKA-Induced Bronchoconstriction; assay type: in vivo, guinea pig; details: i.v., male Hartley guinea pigs, airway pressure, test drug 5 min before [Nle^10]-NKA[4-10] i.v.
Procedure: The inhibitory effect on bronchoconstriction induced with [Nle^10]-NKA[4-10], an NK2 receptor agonist having higher specificity than neurokinin A (NKA), was assessed based on airway pressure as an index according to the modified method of Konzett-Rössler [Naunyn-Schmiedebergs Arch.Exp.Pathol.Pharmakol., 195, 71, (1940)] using guinea pigs (body weight: approximately 500 g, male Hartley guinea pigs).
After canulating the trachea of the guinea pigs under pentobarbital anaesthesia (30 mg/kg, s.c.) and treatment with gallamine (20 mg/kg, i.v.), the animals were ventilated artificially with a constant volume respiration pump (UgoBasile, 7025) at a frequency of 60 per minute and a tidal volume of 8 ml/kg. Airway pressure during artificial respiration was amplified by means of a pressure transducer (Nihon Koden, TP-200T) installed in a branch of the trachea cannula, detected (Nihon Koden, AP-610G), and recorded with a recorder (Nihon Koden, WT-685G). Following pre-treatment with atropine (1 mg/kg, i.v.) and propranolol (1 mg/kg, i.v.), the test drug was administered intravenously. Five minutes later, bronchoconstriction was induced with [Nle^10]-NKA[4-10] at […], i.v., and then airway pressure was measured for 10 minutes. The inhibitory effect was determined based on the intensity of bronchoconstriction of guinea pigs not treated with the test drug, and expressed as the percent of inhibition (%) and the dose level that caused inhibition of 50% (ID50).

[3] = [3H]-substance P 1 nM, crude lung membrane fraction of male Hartley guinea pigs, read-out: IC50 (converted)
[4] = [3H]-SR-48968 1 nM, crude ileum membrane fraction of male Hartley guinea pigs, read-out: IC50 (converted)

T1 sequence (P30547 whole entry): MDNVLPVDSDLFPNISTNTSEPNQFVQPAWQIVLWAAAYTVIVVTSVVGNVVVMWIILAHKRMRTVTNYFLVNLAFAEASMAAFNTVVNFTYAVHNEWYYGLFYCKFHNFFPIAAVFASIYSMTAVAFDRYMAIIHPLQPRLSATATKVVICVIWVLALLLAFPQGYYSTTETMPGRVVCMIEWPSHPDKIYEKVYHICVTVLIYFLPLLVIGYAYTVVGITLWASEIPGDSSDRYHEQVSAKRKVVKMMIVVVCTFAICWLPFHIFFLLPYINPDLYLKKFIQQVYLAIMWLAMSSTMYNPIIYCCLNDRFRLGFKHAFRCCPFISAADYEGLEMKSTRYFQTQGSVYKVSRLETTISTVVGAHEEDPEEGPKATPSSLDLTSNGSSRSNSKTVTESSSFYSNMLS

SMILES | IC50 (NK1 receptors; [3]) [nM] | IC50 (NK2 receptors; [4]) [nM] | ID50 [1] [mg/kg] | ID50 [2] [mg/kg] | IC50 (NK1 receptors) [nM] | IC50 (NK2 receptors) [nM] | activity in NK2 binding test (in words) (NK2 receptors; comment on Table 5)
Cc1cc(C)cc(C(=O)N(C)C[C@@H](CCN2CCC3(CC2)CN(S(C)(=O)=O)c2ccccc23)c2ccc(Cl)c(Cl)c2)c1 [Compound A] | 60.4 | 28.6 | 5.8 | >10 |  |  | 
CN(C[C@@H](CCN1CCC2(CCc3ccccc32)CC1)c1ccc(Cl)c(Cl)c1)C(=O)c1ccccc1 [Compound B] |  |  | >10 | 0.37 | > 1920 | 4.22 | 
COc1cc(C(=O)N2CC[C@](CCN3CCC(C(N)=O)(c4ccccc4)CC3)(c3ccc(Cl)c(Cl)c3)C2)cc(OC)c1OC [Compound C] | 10.1 | 48.4 | 0.019 | 1.7 |  |  | very weak activity
COc1cc(C(=O)N2CO[C@](CCN3CCC4(CC3)c3ccccc3C[S@+]4[O-])(c3ccc(Cl)c(Cl)c3)C2)cc(OC)c1OC [Example 75, 1-{2-[(5R)-(3,4-Dichlorophenyl)-3-(3,4,5-trimethoxybenzoyl)oxazolidine-5-yl]ethyl}spiro[benzo[c]thiophene-1(3H),4′-piperidine]-(2S)-oxide] | 8.94 | 1.29 | 0.025 | 0.074 |  |  | 
COc1cc(C(=O)N2CCOC(CCN3CCC4(CC3)c3ccccc3C[S+]4[O-])(c3ccc(Cl)c(Cl)c3)C2)cc(OC)c1OC [Example 76, 1-{2-[(2R)-(3,4-Dichlorophenyl)-4-(3,4,5-trimethoxybenzoyl)morpholin-2-yl]ethyl}spiro[benzo[c]thiophene-1(3H),4′-piperidine]-(2S)-oxide] |  |  | 0.047 | 0.047 |  |  | 
